Experimental findings from patent US20220242870A1, “HETEROCYCLE-FUSED PYRIMIDINE DERIVATIVE AND USE THEREOF” (VORONOI Inc., priority 2019, published 2022) are described below.

The subject of one assay is MCF-7 cells. The assay is described as follows: Breast cancer cell line proliferation inhibitory activity (CellTiter-Glo 2.0). The class given is cell-based. The following applies: Homo sapiens, MCF7, 120 hours. The method in brief:
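MCF-7 cells exposed to a 12-point, 3-fold dilution series (final 0.00005–10 μM) for 120 h at 37 °C. Viability read by CellTiter-Glo 2.0 luminescence, expressed as percent of vehicle-treated cells. GI50 (nM) derived from the curves.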
Background: Cellular ATP, detected with luciferase, serves as a proxy for viable cell number.

For a further assay, the target named is T1, human GST-HPK1 (1-346) (Homo sapiens, UniProt Q92918).
T1 construct: purified human GST-HPK1 (1-346, Signalchem) enzyme; purchased Signalchem
T1 sequence (Q92918 1-346): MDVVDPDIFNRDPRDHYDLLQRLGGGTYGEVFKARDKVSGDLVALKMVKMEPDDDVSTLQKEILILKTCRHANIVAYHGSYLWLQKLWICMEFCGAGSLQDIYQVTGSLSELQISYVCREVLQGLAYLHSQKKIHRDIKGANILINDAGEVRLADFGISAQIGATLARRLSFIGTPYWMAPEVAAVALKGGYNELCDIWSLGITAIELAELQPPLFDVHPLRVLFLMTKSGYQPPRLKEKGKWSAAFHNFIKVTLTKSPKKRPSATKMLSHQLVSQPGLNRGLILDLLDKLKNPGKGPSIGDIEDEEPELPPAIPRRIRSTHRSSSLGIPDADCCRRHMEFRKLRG
The experiment in a line: HPK1 enzyme inhibitory ability (ADP-Glo kinase assay). In kind it is biochemical. The following applies: human GST-HPK1 3 ng, ATP 3 uM, 25° C. 2 hours. The method, boiled down:
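Human GST-HPK1(1-346), 3 ng, reacted with 3 uM ATP and specific substrate in 40 mM Tris-HCl pH 7.4, 20 mM MgCl2, 0.5 mg/mL BSA, 50 uM DTT for 2 h at 25° C. ADP-Glo luminescence read; IC50 (nM) relative to untreated solvent control.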
On the technique in general: In ADP-Glo the light output rises with the ADP produced.

The target in the next assay is T2, human FLT3-ITD enzyme (Homo sapiens, UniProt P36888).
T2 sequence (P36888 1-993): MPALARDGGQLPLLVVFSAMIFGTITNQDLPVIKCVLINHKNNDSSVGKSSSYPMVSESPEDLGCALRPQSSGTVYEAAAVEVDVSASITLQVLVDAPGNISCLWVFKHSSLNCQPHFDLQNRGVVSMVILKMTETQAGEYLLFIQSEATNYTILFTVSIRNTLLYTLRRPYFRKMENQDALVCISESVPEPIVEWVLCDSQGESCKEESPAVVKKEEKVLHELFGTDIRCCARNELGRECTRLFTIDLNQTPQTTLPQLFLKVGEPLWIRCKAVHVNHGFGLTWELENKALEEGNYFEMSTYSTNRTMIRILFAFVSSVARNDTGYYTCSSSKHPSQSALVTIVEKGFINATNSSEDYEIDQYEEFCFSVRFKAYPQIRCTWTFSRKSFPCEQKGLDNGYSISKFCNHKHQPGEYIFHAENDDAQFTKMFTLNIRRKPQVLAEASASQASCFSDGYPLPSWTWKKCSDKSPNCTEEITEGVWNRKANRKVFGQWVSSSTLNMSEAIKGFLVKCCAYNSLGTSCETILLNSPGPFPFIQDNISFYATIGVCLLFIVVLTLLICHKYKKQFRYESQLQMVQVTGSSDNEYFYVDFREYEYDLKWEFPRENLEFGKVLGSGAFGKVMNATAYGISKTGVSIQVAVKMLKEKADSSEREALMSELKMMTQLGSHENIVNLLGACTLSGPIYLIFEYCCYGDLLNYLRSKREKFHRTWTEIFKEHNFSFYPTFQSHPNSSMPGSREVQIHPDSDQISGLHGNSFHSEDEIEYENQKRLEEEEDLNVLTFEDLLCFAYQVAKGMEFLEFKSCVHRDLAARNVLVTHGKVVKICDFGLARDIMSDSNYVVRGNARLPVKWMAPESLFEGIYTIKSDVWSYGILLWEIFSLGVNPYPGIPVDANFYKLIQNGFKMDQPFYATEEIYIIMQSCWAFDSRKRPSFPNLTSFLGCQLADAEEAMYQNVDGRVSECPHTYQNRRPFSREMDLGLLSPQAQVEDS
The assay is described as follows: FLT3 enzyme inhibitory ability (ADP-Glo kinase assay). The class given is biochemical. The following applies: human FLT3-ITD enzyme 10 ng, ATP 10 μM, 25° C. 1 hour. The method in brief: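 Purified human FLT3-ITD (10 ng) with 10 μM ATP and specific substrate in 40 mM Tris-HCl pH 7.4, 20 mM MgCl2, 0.5 mg/mL BSA, 50 μM DTT, 1 h at 25 °C. ADP formation read by ADP-Glo luminescence; IC50 (nM) versus solvent-treated control.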

In another assay the test system is MV4-11 cells. The experiment in a line: AML cell proliferation inhibitory activity (CellTiter-Glo). The class given is cell-based. The following applies: Homo sapiens, 72 hours. Here is the method:
The inhibitory activities of the example compounds according to the present invention on the proliferation of acute myeloid leukemia (AML) cells expressing the FLT3 mutant gene were evaluated. Specifically, RS4;11 and MV4-11 cells as acute myeloid leukemia cells expressing the FLT3 mutant gene were cultured in RPMI-1640 (Invitrogen) adding 10% FBS. The cells were seeded into each well of a clear bottom white 96-well plate (Corning) at 3000 to 5000 cells 24 hours before compound treatment. The compound was diluted in DMSO (diluted each three-fold, to a total of 12 concentrations) and injected at 0.5 μL each so as to be a final concentration of 0.3 nM to 50 μM. After 72 hours of the compound treatment, they were treated with CellTiter-Glo Luminescent Cell Viability assay (Promega) and stored at room temperature for 10 minutes, and luminescence intensities were measured with a reader (SynergyNeo, Biotek) to count viable cells. Each experiment was performed three times repeatedly. The result values were calculated as the cell growth rate (%) compared to the control treated with the solvent. The graph was derived using the GraphPad Prism program (version 5.0), the GI50 (nM) values were calculated, and the results were shown in Table 3 below.

Turning to `CN1CCN(c2ccc(Nc3nc(N4N=CCC4c4ccccc4)c4sccc4n3)cc2)CC1` (stereo not shown) [Example 1, N-(4-(4-methylpiperazin-1-yl)phenyl)-4-(5-phenyl-4,5-dihydro-1H-pyrazol-1-yl)thieno[3,2-d]pyrimidin-2-amine], the GI50 with MCF-7 cells and in the assay on MV4-11 cells was greater than 500 nM each time. In addition, the IC50 was greater than 500 nM against human GST-HPK1 (1-346) and 250 to 500 nM against human FLT3-ITD enzyme.

Take `COc1cc(N2CCN(C)CC2)ccc1Nc1nc(N2N=CCC2c2ccccc2)c2sccc2n1` (stereo not shown) [Example 6, N-(2-methoxy-4-(4-methylpiperazin-1-yl)phenyl)-4-(5-phenyl-4,5-dihydro-1H-pyrazol-1-yl)thieno[3,2-d]pyrimidin-2-amine]: the GI50 in the assay on MCF-7 cells and in the assay with MV4-11 cells was greater than 500 nM throughout. Besides, the IC50 against human GST-HPK1 (1-346) and on human FLT3-ITD enzyme was greater than 500 nM each time.

On to `COc1cc(Nc2nc(N3N=CCC3c3ccccc3)c3sccc3n2)ccc1N1CCC(N2CCN(C)CC2)CC1` (stereo not shown) [Example 8, N-(3-methoxy-4-(4-(4-methylpiperazin-1-yl)piperidin-1-yl)phenyl)-4-(5-phenyl-4,5-dihydro-1H-pyrazol-1-yl)thieno[3,2-d]pyrimidin-2-amine], for which the values for the GI50 in the assay with MCF-7 cells and in the assay with MV4-11 cells were greater than 500 nM and no less than 250 nM, respectively. The IC50 on human GST-HPK1 (1-346) and against human FLT3-ITD enzyme was greater than 500 nM throughout.

`CCc1cc(Nc2nc(N3N=CCC3c3ccccc3)c3sccc3n2)cc(OCCN2CCC(O)CC2)c1` (stereo not shown) [Example 16, 1-(2-(3-ethyl-5-((4-(5-phenyl-4,5-dihydro-1H-pyrazol-1-yl)thieno[3,2-d]pyrimidin-2-yl)amino)phenoxy)ethyl)piperidin-4-ol]: the GI50 with MCF-7 cells and with MV4-11 cells was greater than 500 nM each time. In addition, the IC50 on human GST-HPK1 (1-346) and against human FLT3-ITD enzyme was greater than 500 nM throughout.

Molecule `COc1cc(Nc2nc(N3N=CCC3c3ccccc3)c3sccc3n2)ccc1C(=O)NC1CCN(C)CC1` (stereo not shown) [Example 52, 2-methoxy-N-(1-methylpiperidin-4-yl)-4-((4-(5-phenyl-4,5-dihydro-1H-pyrazol-1-yl)thieno[3,2-d]pyrimidin-2-yl)amino)benzamide] showed an IC50 against human FLT3-ITD enzyme greater than 500 nM. The GI50 in the assay with MV4-11 cells was no less than 250 nM.

Take `COc1cc(Nc2nc(N3OCC[C@H]3c3ccccc3)c3sccc3n2)ccc1N1CCC(N2CCN(C)CC2)CC1` [Example 57, (S)-N-(3-methoxy-4-(4-(4-methylpiperazin-1-yl)piperidin-1-yl)phenyl)-4-(3-phenylisoxazolidin-2-yl)thieno[3,2-d]pyrimidin-2-amine]: the 50% growth inhibitory concentration (GI50) with MCF-7 cells and with MV4-11 cells was greater than 500 nM in each case. Besides, the IC50 was greater than 500 nM against human GST-HPK1 (1-346) and 250 to 500 nM against human FLT3-ITD enzyme.

Consider `CN1CCN(c2ccc(Nc3nc(N4OCC[C@H]4c4ccccc4)c4sccc4n3)cc2)CC1` [Example 59, (S)-N-(4-(4-methylpiperazin-1-yl)phenyl)-4-(3-phenylisoxazolidin-2-yl)thieno[3,2-d]pyrimidin-2-amine], for which the GI50 in the assay with MCF-7 cells and in the assay on MV4-11 cells was greater than 500 nM each time. Further, the IC50 at human GST-HPK1 (1-346) is greater than 500 nM; at human FLT3-ITD enzyme, no less than 250 nM.

Take `COc1cc(Nc2nc(N3N=CCC3c3ccccc3)c3cc[nH]c3n2)ccc1N1CCC(N2CCN(C)CC2)CC1` (stereo not shown) [Example 69, N-(3-methoxy-4-(4-(4-methylpiperazin-1-yl)piperidin-1-yl)phenyl)-4-(5-phenyl-4,5-dihydro-1H-pyrazol-1-yl)-7H-pyrrolo[2,3-d]pyrimidin-2-amine]: the GI50 with MCF-7 cells and in the assay with MV4-11 cells was greater than 500 nM in each case. For the same molecule, the IC50 on human GST-HPK1 (1-346) is greater than 500 nM; at human FLT3-ITD enzyme it was 250 to 500 nM.

With `COc1cccc([C@@H]2CCON2c2nc(Nc3ccc(N4CCN(C)CC4)cc3)nc3[nH]ccc23)c1` [Example 75, (S)-4-(3-(3-methoxyphenyl)isoxazolidin-2-yl)-N-(4-(4-methylpiperazin-1-yl)phenyl)-7H-pyrrolo[2,3-d]pyrimidin-2-amine], the GI50 in the assay on MCF-7 cells and in the assay with MV4-11 cells was greater than 500 nM each time. Moreover, the IC50 on human GST-HPK1 (1-346) was greater than 500 nM; against human FLT3-ITD enzyme it was 250 to 500 nM.

Take `CN1CCN(c2ccc(Nc3nc(N4OCC[C@H]4c4cccc(F)c4)c4cc[nH]c4n3)cc2)CC1` [Example 76, (S)-4-(3-(3-fluorophenyl)isoxazolidin-2-yl)-N-(4-(4-methylpiperazin-1-yl)phenyl)-7H-pyrrolo[2,3-d]pyrimidin-2-amine]: the concentration for 50% growth inhibition (GI50) in the assay with MCF-7 cells and with MV4-11 cells was greater than 500 nM in each case. In addition, the IC50 against human GST-HPK1 (1-346) and at human FLT3-ITD enzyme was no less than 250 nM each time.

For the molecule `CN1CCN(c2ccc(Nc3nc(N4OCC[C@H]4c4cccs4)c4cc[nH]c4n3)cc2)CC1` [Example 77, (S)-N-(4-(4-methylpiperazin-1-yl)phenyl)-4-(3-(thiophen-2-yl)isoxazolidin-2-yl)-7H-pyrrolo[2,3-d]pyrimidin-2-amine], the GI50 is greater than 500 nM with MCF-7 cells and 250 to 500 nM in the assay with MV4-11 cells. The 50% inhibitory concentration (IC50) against human GST-HPK1 (1-346) and against human FLT3-ITD enzyme was no less than 250 nM each time.

With `CN1CCN(c2ccc(Nc3nc(N4OCC[C@H]4c4cccnc4)c4cc[nH]c4n3)cc2)CC1` [Example 78, (S)-N-(4-(4-methylpiperazin-1-yl)phenyl)-4-(3-(pyridin-3-yl)isoxazolidin-2-yl)-7H-pyrrolo[2,3-d]pyrimidin-2-amine], the GI50 with MCF-7 cells and with MV4-11 cells was greater than 500 nM throughout. Moreover, the IC50 against human GST-HPK1 (1-346) and at human FLT3-ITD enzyme was no less than 250 nM each time.

In the case of `CN(C)C1CCN(c2ccc(Nc3nc(N4OCC[C@H]4c4ccccc4)c4cc[nH]c4n3)cc2)CC1` [Example 83, (S)-N-(4-(4-(dimethylamino)piperidin-1-yl)phenyl)-4-(3-phenylisoxazolidin-2-yl)-7H-pyrrolo[2,3-d]pyrimidin-2-amine], the GI50 with MCF-7 cells is greater than 500 nM; in the assay on MV4-11 cells, no less than 250 nM. The IC50 against human GST-HPK1 (1-346) and at human FLT3-ITD enzyme was no less than 250 nM each time.

In the case of `COc1cc(Nc2nc(N3OCC[C@@H]3c3ccccc3)c3cc[nH]c3n2)ccc1N1CCC(N2CCN(C)CC2)CC1` [Example 129, (R)-N-(3-methoxy-4-(4-(4-methylpiperazin-1-yl)piperidin-1-yl)phenyl)-4-(3-phenylisoxazolidin-2-yl)-7H-pyrrolo[2,3-d]pyrimidin-2-amine], on human FLT3-ITD enzyme, the 50% inhibitory concentration (IC50) is greater than 500 nM. Further, the GI50 with MV4-11 cells was in the range of 250 to 500 nM.

A word on the GI50: it is the concentration at which growth is held to half of that of the control. What is called IC50 is the point on the concentration scale where inhibition reaches its midpoint. Read a low IC50 as greater potency.
